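All cell lines were grown in 96-well plates and treated with compound for 48 hours. GI50: concentration for 50% inhibition of growth. Definition used: TGI = concentration required for complete inhibition of growth.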
Experiments:
Assay in all cases: DTP human tumour cell line panel, 48 h
OVCAR-8 ovarian = system: OVCAR-8 ovarian
BT-549 breast = system: BT-549 breast
IGROV1 ovarian = system: IGROV1 ovarian
SK-OV-3 ovarian = system: SK-OV-3 ovarian
U251 CNS = system: U251 CNS
786-0 renal = system: 786-0 renal
HOP-62 NSCLC = system: HOP-62 NSCLC
NCI-H226 lung = system: NCI-H226 lung
HOP-92 NSCLC = system: HOP-92 NSCLC
M14 melanoma = system: M14 melanoma
SK-MEL-2 melanoma = system: SK-MEL-2 melanoma
SW-620 colon = system: SW-620 colon
SF-268 CNS = system: SF-268 CNS
SF-295 CNS = system: SF-295 CNS
MCF7 breast = system: MCF7 breast
RXF 393 renal = system: RXF 393 renal
ACHN renal = system: ACHN renal
HS 578T breast = system: HS 578T breast
A549 NSCLC = system: A549 NSCLC
SNB-19 CNS = system: SNB-19 CNS
K-562 leukemia = system: K-562 leukemia
NCI/ADR-RES ovarian = system: NCI/ADR-RES ovarian
A498 renal = system: A498 renal
MDA-MB-231 breast = system: MDA-MB-231 breast
SNB-75 CNS = system: SNB-75 CNS
TK-10 renal = system: TK-10 renal
SK-MEL-5 melanoma = system: SK-MEL-5 melanoma
COLO 205 colon = system: COLO 205 colon
UO-31 renal = system: UO-31 renal
HT29 colon = system: HT29 colon
HCT-116 colon = system: HCT-116 colon
NCI-H460 lung = system: NCI-H460 lung
CCRF-CEM leukemia = system: CCRF-CEM leukemia
DU-145 prostate = system: DU-145 prostate
UACC-257 melanoma = system: UACC-257 melanoma
RPMI-8226 leukemia = system: RPMI-8226 leukemia
OVCAR-4 ovarian = system: OVCAR-4 ovarian
UACC-62 melanoma = system: UACC-62 melanoma
SN12C renal = system: SN12C renal
OVCAR-5 ovarian = system: OVCAR-5 ovarian
PC-3 prostate = system: PC-3 prostate
NCI-H522 lung = system: NCI-H522 lung
MALME-3M melanoma = system: MALME-3M melanoma
LOX IMVI melanoma = system: LOX IMVI melanoma
SF-539 CNS = system: SF-539 CNS
OVCAR-3 ovarian = system: OVCAR-3 ovarian
CAKI-1 renal = system: CAKI-1 renal
SK-MEL-28 melanoma = system: SK-MEL-28 melanoma
MDA-MB-435 = system: MDA-MB-435
HL-60(TB) leukemia = system: HL-60(TB) leukemia
EKVX NSCLC = system: EKVX NSCLC

## COc1ccc(C(=O)/C=C/c2cc(C(=O)c3cc(OC)c(OC)c(OC)c3)ccc2OC)cc1
OVCAR-8 ovarian
  GI50: 4.61 µM
  TGI: > 100 µM
BT-549 breast
  GI50: 2.85 µM
  TGI: > 100 µM
IGROV1 ovarian
  GI50: 8.82 µM
  TGI: > 100 µM
SK-OV-3 ovarian
  GI50: > 100 µM
  TGI: > 100 µM
U251 CNS
  GI50: 3.11 µM
  TGI: > 100 µM
786-0 renal
  GI50: 7.71 µM
  TGI: > 100 µM
HOP-62 NSCLC
  GI50: 11.8 µM
  TGI: 94.5 µM
NCI-H226 lung
  GI50: 4.34 µM
  TGI: > 100 µM
HOP-92 NSCLC
  GI50: 5.81 µM
  TGI: 58.9 µM
M14 melanoma
  GI50: 4.92 µM
  TGI: > 100 µM
SK-MEL-2 melanoma
  GI50: 6.04 µM
  TGI: > 100 µM
SW-620 colon
  GI50: 3.07 µM
  TGI: > 100 µM
SF-268 CNS
  GI50: 3.51 µM
  TGI: > 100 µM
SF-295 CNS
  GI50: 6.27 µM
  TGI: > 100 µM
MCF7 breast
  GI50: 3.05 µM
  TGI: > 100 µM
RXF 393 renal
  GI50: 14.7 µM
  TGI: > 100 µM
ACHN renal
  GI50: 3.19 µM
  TGI: > 100 µM
HS 578T breast
  GI50: 4.3 µM
  TGI: > 100 µM
A549 NSCLC
  GI50: > 100 µM
  TGI: > 100 µM
SNB-19 CNS
  GI50: 4.54 µM
  TGI: > 100 µM
K-562 leukemia
  GI50: 2.86 µM
  TGI: > 100 µM
NCI/ADR-RES ovarian
  GI50: 2.93 µM
  TGI: > 100 µM
A498 renal
  GI50: 7.33 µM
  TGI: > 100 µM
MDA-MB-231 breast
  GI50: 3.69 µM
  TGI: > 100 µM
SNB-75 CNS
  GI50: 4.75 µM
  TGI: 33.7 µM
TK-10 renal
  GI50: 14 µM
  TGI: > 100 µM

## Cc1nc(Nc2ccc(F)c(Cl)c2)sc1C(=O)O
OVCAR-8 ovarian
  GI50: 2.14 µM
  TGI: 4.82 µM
SK-MEL-5 melanoma
  GI50: 1.48 µM
  TGI: 2.82 µM
COLO 205 colon
  GI50: 1.64 µM
  TGI: 3.2 µM
UO-31 renal
  GI50: 1.16 µM
  TGI: 2.82 µM
HT29 colon
  GI50: 1.67 µM
  TGI: 3.44 µM
HCT-116 colon
  GI50: 1.51 µM
  TGI: 3.34 µM
BT-549 breast
  GI50: 1.7 µM
  TGI: 4.28 µM
IGROV1 ovarian
  GI50: 1.63 µM
  TGI: 5.03 µM
NCI-H460 lung
  GI50: 2.07 µM
  TGI: 4.74 µM
CCRF-CEM leukemia
  GI50: 3.01 µM
  TGI: > 100 µM
SK-OV-3 ovarian
  GI50: 1.83 µM
  TGI: 4.33 µM
U251 CNS
  GI50: 1.44 µM
  TGI: 3.04 µM
786-0 renal
  GI50: 1.74 µM
  TGI: 3.98 µM
DU-145 prostate
  GI50: 2.22 µM
  TGI: 7.84 µM
UACC-257 melanoma
  GI50: 1.78 µM
  TGI: 3.36 µM
HOP-62 NSCLC
  GI50: 1.42 µM
  TGI: 2.93 µM
NCI-H226 lung
  GI50: 1.77 µM
  TGI: 5.37 µM
HOP-92 NSCLC
  GI50: 0.877 µM
  TGI: 2.74 µM
M14 melanoma
  GI50: 1.73 µM
  TGI: 3.66 µM
RPMI-8226 leukemia
  GI50: 2.16 µM
  TGI: 6.22 µM
OVCAR-4 ovarian
  GI50: 1.74 µM
  TGI: 9.12 µM
SK-MEL-2 melanoma
  GI50: 1.97 µM
  TGI: 3.8 µM
SW-620 colon
  GI50: 2.32 µM
  TGI: 6.31 µM
SF-268 CNS
  GI50: 1.76 µM
  TGI: 4.36 µM
UACC-62 melanoma
  GI50: 1.17 µM
  TGI: 2.62 µM
SN12C renal
  GI50: 1.53 µM
  TGI: 3.56 µM
SF-295 CNS
  GI50: 1.49 µM
  TGI: 3.15 µM
OVCAR-5 ovarian
  GI50: 1.7 µM
  TGI: 4.1 µM
PC-3 prostate
  GI50: 1.75 µM
  TGI: 4.8 µM
MCF7 breast
  GI50: 1.53 µM
  TGI: 8.18 µM
RXF 393 renal
  GI50: 1.71 µM
  TGI: 3.94 µM
ACHN renal
  GI50: 1.52 µM
  TGI: 3.24 µM
NCI-H522 lung
  GI50: 1.1 µM
  TGI: 3.17 µM
MALME-3M melanoma
  GI50: 1.65 µM
  TGI: 3.71 µM
HS 578T breast
  GI50: 1.87 µM
  TGI: 5.44 µM
A549 NSCLC
  GI50: 1.68 µM
  TGI: 3.81 µM
LOX IMVI melanoma
  GI50: 1.51 µM
  TGI: 2.91 µM
SF-539 CNS
  GI50: 1.58 µM
  TGI: 3.07 µM
SNB-19 CNS
  GI50: 1.93 µM
  TGI: 5.22 µM
K-562 leukemia
  GI50: 2.65 µM
  TGI: > 100 µM
NCI/ADR-RES ovarian
  GI50: 1.78 µM
  TGI: 4.7 µM
OVCAR-3 ovarian
  GI50: 1.82 µM
  TGI: 4.47 µM
CAKI-1 renal
  GI50: 1.9 µM
  TGI: 7.34 µM
A498 renal
  GI50: 1.64 µM
  TGI: 4.16 µM
SK-MEL-28 melanoma
  GI50: 1.77 µM
  TGI: 3.68 µM
MDA-MB-435
  GI50: 2.13 µM
  TGI: 5.25 µM
HL-60(TB) leukemia
  GI50: 3.41 µM
  TGI: 8.17 µM
EKVX NSCLC
  GI50: 0.865 µM
  TGI: 5.76 µM
SNB-75 CNS
  GI50: 1.18 µM
  TGI: 4.31 µM
TK-10 renal
  GI50: 1.96 µM
  TGI: 4.09 µM

— PubChem BioAssay (NCI)
